One experiment deals with T1, eeAChE (Electrophorus electricus, UniProt O42275).
T1 construct: purchased Sigma-Aldrich
The experiment in a line: Kinetic study of AChE inhibition (Lineweaver–Burk). It is filed as biochemical. The conditions noted are these: Lineweaver–Burk plot, 0, 2, 5, 10, 20 µM. Here is the method:
In each case, the kinetic type of enzyme inhibition was obtained through the modified Ellman’s method and Lineweaver–Burk secondary plots.
Figure 2. […] (B) Lineweaver–Burk plot for the inhibition of eqBChE by compound 15j at different concentrations of substrate.
Kinetic studies were performed in the same manner as the determination of ChEs inhibition, while the substrate (ATC/BTC) was used in concentrations of 90, 150, 226, 452, and 904 µM. The concentrations of test compounds were set to 0, 2, 5, 10, and 20 µM for 15b and 0, 0.5, 1, 2, and 5 µM for 15j. The enzymatic reaction was extended to 7 min for eeAChE and eqBuChE before the determination of the absorption. Vmax and Km values of the Michaelis–Menten kinetics were calculated by nonlinear regression from substrate-velocity curves using GraphPad Prism 6.0. Linear regression was used for fitting the Lineweaver–Burk plots.

Experiment [1] addresses T2, BChE (EC 3.1.1.8) from horse serum (Equus caballus, UniProt P81908).
T2 construct: horse serum BChE (eqBChE, Sigma-Aldrich); purchased Sigma-Aldrich; host or cells: horse serum
The experiment in a line: biochemical. The conditions noted are these: eqBChE; mean ± SEM of triplicate independent experiments; read-out: BChE IC50. Here is the method:
(§1) The data were expressed as IC50 values (Table 1).
(§2) The inhibitory activities of the target compounds towards AChE (from Electrophorus electricus (electric eeAChE, Sigma-Aldrich) and horse serum BChE (eqBChE, Sigma-Aldrich) or human AChE – huAChE; human BuChE – huBuChE (huAChE, huBuChE, Sigma-Aldrich) were measured by Ellman’s method. In 96-well plates, a mixture of phosphate buffer (0.1 M, pH 8.0, […]), 5,5′-dithiobis-2-nitrobenzoic acid (DTNB, 60 µL), acetylcholinestrase or butyrylcholinesterase (20 µL, 5 IU/mL) and different concentration of the compound solution (30 µL) was pre-incubated for 5 min followed by the addition of the substrate (acetylthiocholine iodide or butyrylthiocholine iodide, 20 µL). […] The measurement of each concentration for each compound was detected in triplicate. GraphPad Prism 6.0 (GraphPad Software, Inc., La Jolla, CA) was used for data processing. The inhibition curve was fitted by plotting percentage enzyme activity (100% for the reference) versus the logarithm of the concentration of tested compound. The half-maximal inhibitory concentration (IC50) values were calculated according to the inhibition curve and the data were shown in the layout of mean ± SEM by GraphPad Prism 6.0.

Experiment [2] has as its target T3, AChE (EC 3.1.1.7) from electric eel (Electrophorus electricus, UniProt O42275).
T3 construct: purchased Sigma-Aldrich
The experiment in a line: biochemical. It is filed as biochemical. The method, then: as §1, §2

The values below come from paper PMC6968383, “Design, synthesis, in vitro and in vivo evaluation of benzylpiperidine-linked 1,3-dimethylbenzimidazolinones as cholinesterase inhibitors against Alzheimer’s disease” (Journal of Enzyme Inhibition and Medicinal Chemistry, 2019).

As a reminder, the IC50 is the concentration at which inhibition is half-maximal.

T3 sequence (O42275 24-633): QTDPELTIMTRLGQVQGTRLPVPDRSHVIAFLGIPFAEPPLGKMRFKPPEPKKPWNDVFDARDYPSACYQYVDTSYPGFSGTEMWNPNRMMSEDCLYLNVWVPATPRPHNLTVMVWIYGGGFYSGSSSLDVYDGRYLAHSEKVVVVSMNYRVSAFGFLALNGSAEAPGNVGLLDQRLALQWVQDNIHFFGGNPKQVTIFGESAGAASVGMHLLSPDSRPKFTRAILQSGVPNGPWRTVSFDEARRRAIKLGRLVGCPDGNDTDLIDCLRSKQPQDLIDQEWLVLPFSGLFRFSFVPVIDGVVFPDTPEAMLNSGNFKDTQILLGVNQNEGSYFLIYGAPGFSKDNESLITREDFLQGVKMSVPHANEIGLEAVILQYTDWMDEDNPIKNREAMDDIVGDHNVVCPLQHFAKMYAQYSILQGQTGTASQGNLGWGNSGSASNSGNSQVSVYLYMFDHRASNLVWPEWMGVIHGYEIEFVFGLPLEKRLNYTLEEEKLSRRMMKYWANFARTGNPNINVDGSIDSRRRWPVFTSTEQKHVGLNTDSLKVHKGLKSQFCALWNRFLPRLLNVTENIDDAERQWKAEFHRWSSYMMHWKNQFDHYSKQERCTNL
T1 sequence (O42275 24-633): as above
T2 sequence (P81908 whole entry): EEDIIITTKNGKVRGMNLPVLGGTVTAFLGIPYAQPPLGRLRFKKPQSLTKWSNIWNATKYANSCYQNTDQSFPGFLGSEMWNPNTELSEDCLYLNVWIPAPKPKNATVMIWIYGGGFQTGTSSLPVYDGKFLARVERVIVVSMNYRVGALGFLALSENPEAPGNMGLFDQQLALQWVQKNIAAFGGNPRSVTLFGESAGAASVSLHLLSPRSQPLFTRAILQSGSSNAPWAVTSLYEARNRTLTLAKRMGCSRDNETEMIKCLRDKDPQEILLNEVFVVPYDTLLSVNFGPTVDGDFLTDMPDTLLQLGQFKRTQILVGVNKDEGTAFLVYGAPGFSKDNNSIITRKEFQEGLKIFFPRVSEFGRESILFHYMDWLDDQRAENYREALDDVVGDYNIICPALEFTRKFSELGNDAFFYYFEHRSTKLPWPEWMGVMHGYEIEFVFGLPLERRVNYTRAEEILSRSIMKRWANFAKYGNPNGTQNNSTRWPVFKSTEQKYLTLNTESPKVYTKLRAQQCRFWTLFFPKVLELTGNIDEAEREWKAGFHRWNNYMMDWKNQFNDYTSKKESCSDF

In the case of `Cc1ccccc1CN1CCC(CNS(=O)(=O)c2ccc3c(c2)n(C)c(=O)n3C)CC1` [Compound 15b, 1,3-dimethyl-N-((1–(2-methylbenzyl)piperidin-4-yl)methyl)-2-oxo-2,3-dihydro-1H-benzo[d]imidazole-5-sulphonamide], the “kinetic type of AChE inhibition” value at eeAChE is “competitive”.
On to `Cn1c(=O)n(C)c2cc(S(=O)(=O)NCC3CCN(Cc4cccc(Br)c4)CC3)ccc21` [Compound 15j, N-((1–(3-bromobenzyl)piperidin-4-yl)methyl)-1,3-dimethyl-2-oxo-2,3-dihydro-1H-benzo[d]imidazole-5-sulphonamide], for which the IC50 in experiment [1] is 160 ± 40 nM; in experiment [2] (eeAChE, mean ± SEM of triplicate independent experiments, read-out: AChE IC50) it was 390 ± 150 nM. The “SI (selectivity index = AChE IC50/BChE IC50)” value in experiment [2] (eeAChE IC50 / eqBChE IC50) is on record as 2.44.
